Counter-ions that a name gives are not always drawn.
molecular target: T1, recombinant human LTA4 hydrolase (rhLTA4H) (Homo sapiens, UniProt P09960); test: Recombinant Human LTA4 Hydrolase Assay for LTA4 Hydrolase Inhibitor Activity; format: biochemical; conditions: average of results obtained; LTB4 quantified by enzyme-linked immunoassay
T1 construct: made in house; host or cells: Spodoptera frugiperda (Sf-9) cells, baculovirus (pFastBac1)
T1 sequence (P09960 1-611): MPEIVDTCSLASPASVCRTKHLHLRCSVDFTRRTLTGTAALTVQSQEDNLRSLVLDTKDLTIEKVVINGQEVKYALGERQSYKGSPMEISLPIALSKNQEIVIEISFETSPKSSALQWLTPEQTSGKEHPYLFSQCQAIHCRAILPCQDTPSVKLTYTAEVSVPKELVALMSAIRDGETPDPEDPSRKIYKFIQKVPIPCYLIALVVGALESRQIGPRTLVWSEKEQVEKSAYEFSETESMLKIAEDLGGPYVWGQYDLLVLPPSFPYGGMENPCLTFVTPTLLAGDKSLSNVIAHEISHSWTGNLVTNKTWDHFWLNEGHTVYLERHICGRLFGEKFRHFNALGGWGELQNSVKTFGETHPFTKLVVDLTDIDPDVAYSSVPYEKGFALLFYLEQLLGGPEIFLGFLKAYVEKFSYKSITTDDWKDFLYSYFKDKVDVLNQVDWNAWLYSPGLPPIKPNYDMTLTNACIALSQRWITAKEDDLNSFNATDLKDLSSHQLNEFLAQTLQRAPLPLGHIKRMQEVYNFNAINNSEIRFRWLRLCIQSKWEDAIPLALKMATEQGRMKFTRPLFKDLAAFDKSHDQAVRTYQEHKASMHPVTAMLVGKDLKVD
Method: Biological Methods: Recombinant Human LTA4 Hydrolase Assay for LTA4 Hydrolase Inhibitor Activity
Compounds of the present invention were tested for LTA4 hydrolase inhibitor activity against recombinant human LTA4 hydrolase (rhLTA4H). Vectors were prepared and used to express rhLTA4H essentially as follows: LTA4 hydrolase encoding DNA was amplified by polymerase chain reaction (PCR) using a human placental cDNA library as a template. Oligonucleotide primers for the PCR reaction were based on the 5′-end, and the complement of the 3′-end, of the published nucleotide sequence for the coding region of the human LTA4 hydrolase gene (C. D. Funk et al., Proc. Natl. Acad. Sci. USA 1987, 84:6677-6681). The amplified 1.9 kb DNA fragment encoding LTA4 hydrolase was isolated and cloned into the pFastBac1 vector (Invitrogen). Recombinant baculovirus was generated as described by the manufacturer, and used to infect Spodoptera frugiperda (Sf-9) cells. Recombinant LTA4 hydrolase enzyme was purified from the infected Sf-9 cells essentially as described by J. K. Gierse et al. (Protein Expression and Purification 1993, 4:358-366). The purified enzyme solution was adjusted to contain 0.29 mg/mL LTA4 hydrolase, 50 mM Tris (pH 8.0), 150 mM NaCl, 5 mM dithiothreitol, 50% glycerol, and EDTA-free Complete protease inhibitor cocktail (Roche). The specific activity of the enzyme was about 3.8 μmol/min/mg.
LTA4 substrate was prepared from the methyl ester of LTA4 (Cayman Chemical) by treatment with 67 equiv of NaOH under nitrogen at rt for 40 min. The LTA4 substrate in its free acid form was kept frozen at −80° C. until needed. Each compound was diluted to different concentrations in assay buffer (0.1 M potassium phosphate (pH 7.4), 5 mg/mL fatty acid free BSA) containing 10% DMSO. A 25-uL aliquot of each compound dilution was incubated for 10 min at rt with an equal volume of assay buffer containing 36 ng of recombinant human LTA4H. The solution was then adjusted to 200 μL with assay buffer. LTA4 (free acid) was thawed and diluted in assay buffer to a concentration of 357 ng/mL, and 25 μL (9 ng) of LTA4 substrate was added to the reaction mixture (total volume=225 μL) at time zero. Each reaction was carried out at rt for 10 min. The reaction was stopped by diluting 10 μL of the reaction mixture with 200 μL of assay buffer. LTB4 was quantified in the diluted sample by a commercially available enzyme-linked immunoassay (Cayman Chemical Co.), as recommended by the manufacturer. Positive controls, under essentially identical conditions but without addition of an inhibitor compound, and negative controls, containing all assay components except enzyme, were routinely run in each experiment. […]
Results for the compounds tested in this assay are presented in Table 1 as an average of results obtained.

SMILES | Ki [nM]
c1ccc2sc(Oc3ccc(OCCN4C[C@@H]5C[C@H]4CN5)cc3)nc2c1 [Example 9B, (S,S)-2-{4-[2-(2,5-Diaza-bicyclo[2.2.1]hept-2-yl)-ethoxy]-phenoxy}-benzothiazole trifluoroacetate] | 43
O=C(CO)N1C[C@@H]2C[C@H]1CN2Cc1ccc(Oc2nc3ccccc3s2)cc1 [Example 10, (S,S)-1-{5-[4-(Benzothiazol-2-yloxy)-benzyl]-2,5-diaza-bicyclo[2.2.1]hept-2-yl}-2-hydroxy-ethanone] | 10
O=C(N1C[C@@H]2C[C@H]1CN2Cc1ccc(Oc2nc3ccccc3s2)cc1)C1(O)CC1 [Example 11, (S,S)-{5-[4-(Benzothiazol-2-yloxy)-benzyl]-2,5-diaza-bicyclo[2.2.1]hept-2-yl}-(1-hydroxy-cyclopropyl)-methanone] | 13
CC(C)(O)C(=O)N1C[C@@H]2C[C@H]1CN2Cc1ccc(Oc2nc3ccccc3s2)cc1 [Example 12, (S,S)-1-{5-[4-(Benzothiazol-2-yloxy)-benzyl]-2,5-diaza-bicyclo[2.2.1]hept-2-yl}-2-hydroxy-2-methyl-propan-1-one] | 31
O=C([C@H]1CCOC1)N1C[C@@H]2C[C@H]1CN2Cc1ccc(Oc2nc3ccccc3s2)cc1 [Example 13, (S,S,S)-{5-[4-(Benzothiazol-2-yloxy)-benzyl]-2,5-diaza-bicyclo[2.2.1]hept-2-yl}-(tetrahydro-furan-3-yl)-methanone] | 34
CC(C)(C)OC(=O)NCC(=O)N1C[C@@H]2C[C@H]1CN2Cc1ccc(Oc2nc3ccccc3s2)cc1 [Example 14, (S,S)-(2-{5-[4-(Benzothiazol-2-yloxy)-benzyl]-2,5-diaza-bicyclo[2.2.1]hept-2-yl}-2-oxo-ethyl)-carbamic acid tert-butyl ester] | 9
O=C(CO)N1C[C@@H]2C[C@H]1CN2CCc1ccc(Oc2nc3ccccc3s2)cc1 [Example 15, (S,S)-1-(5-{2-[4-(Benzothiazol-2-yloxy)-phenyl]-ethyl}-2,5-diaza-bicyclo[2.2.1]hept-2-yl)-2-hydroxy-ethanone] | 18
O=C(N1C[C@@H]2C[C@H]1CN2CCc1ccc(Oc2nc3ccccc3s2)cc1)C1(O)CC1 [Example 16] | 11
CC(C)(O)C(=O)N1C[C@@H]2C[C@H]1CN2CCc1ccc(Oc2nc3ccccc3s2)cc1 [Example 17, (S,S)-1-(5-{2-[4-(Benzothiazol-2-yloxy)-phenyl]-ethyl}-2,5-diaza-bicyclo[2.2.1]hept-2-yl)-2-hydroxy-2-methyl-propan-1-one] | 11
O=C(N1C[C@@H]2C[C@H]1CN2CCc1cccc(Oc2nc3ccccc3s2)c1)C1(O)CC1 [Example 18, (S,S)-(5-{2-[3-(Benzothiazol-2-yloxy)-phenyl]-ethyl}-2,5-diaza-bicyclo[2.2.1]hept-2-yl)-(1-hydroxy-cyclopropyl)-methanone] | 66
CC(C)(O)C(=O)N1C[C@@H]2C[C@H]1CN2CCc1cccc(Oc2nc3ccccc3s2)c1 [Example 19, (S,S)-1-(5-{2-[3-(Benzothiazol-2-yloxy)-phenyl]-ethyl}-2,5-diaza-bicyclo[2.2.1]hept-2-yl)-2-hydroxy-2-methyl-propan-1-one] | 163
O=C(CO)N1C[C@@H]2C[C@H]1CN2CCc1cccc(Oc2nc3ccccc3s2)c1 [Example 20, (S,S)-1-(5-{2-[3-(Benzothiazol-2-yloxy)-phenyl]-ethyl}-2,5-diaza-bicyclo[2.2.1]hept-2-yl)-2-hydroxy-ethanone] | 73
COCC(=O)N1C[C@H]2C[C@@H]1CN2Cc1ccc(Oc2nc3ccccc3s2)cc1 [Example 21, (R,R)-1-{5-[4-(Benzothiazol-2-yloxy)-benzyl]-2,5-diaza-bicyclo[2.2.1]hept-2-yl}-2-methoxy-ethanone] | 13
COCC(=O)N1C[C@@H]2C[C@H]1CN2CCOc1ccc(Oc2nc3ccccc3s2)cc1 [Example 22, (S,S)-1-(5-{2-[4-(Benzothiazol-2-yloxy)-phenoxy]-ethyl}-2,5-diaza-bicyclo[2.2.1]hept-2-yl)-2-methoxy-ethanone] | 10
O=C(CO)N1C[C@@H]2C[C@H]1CN2CCOc1ccc(Oc2nc3ccccc3s2)cc1 [Example 23, (S,S)-1-(5-{2-[4-(Benzothiazol-2-yloxy)-phenoxy]-ethyl}-2,5-diaza-bicyclo[2.2.1]hept-2-yl)-2-hydroxy-ethanone] | 26
CC(C)(O)C(=O)N1C[C@H]2C[C@@H]1CN2Cc1ccc(Oc2nc3ccccc3s2)cc1 [Example 24, (R,R)-1-{5-[4-(Benzothiazol-2-yloxy)-benzyl]-2,5-diaza-bicyclo[2.2.1]hept-2-yl}-2-hydroxy-2-methyl-propan-1-one] | 52
CC(C)(O)C(=O)N1C[C@@H]2C[C@H]1CN2CCOc1ccc(Oc2nc3ccccc3s2)cc1 [Example 25, (S,S)-1-(5-{2-[4-(Benzothiazol-2-yloxy)-phenoxy]-ethyl}-2,5-diaza-bicyclo[2.2.1]hept-2-yl)-2-hydroxy-2-methyl-propan-1-one] | 8
O=C(N1C[C@H]2C[C@@H]1CN2Cc1ccc(Oc2nc3ccccc3s2)cc1)C1(O)CC1 [Example 26, (R,R)-{5-[4-(Benzothiazol-2-yloxy)-benzyl]-2,5-diaza-bicyclo[2.2.1]hept-2-yl}-(1-hydroxy-cyclopropyl)-methanone] | 37
O=C(N1C[C@@H]2C[C@H]1CN2CCOc1ccc(Oc2nc3ccccc3s2)cc1)C1(O)CC1 [Example 27, (S,S)-(5-{2-[4-(Benzothiazol-2-yloxy)-phenoxy]-ethyl}-2,5-diaza-bicyclo[2.2.1]hept-2-yl)-(1-hydroxy-cyclopropyl)-methanone] | 1
CC(C)(C)OC(=O)NCC(=O)N1C[C@H]2C[C@@H]1CN2Cc1ccc(Oc2nc3ccccc3s2)cc1 [Example 28, (R,R)-(2-{5-[4-(Benzothiazol-2-yloxy)-benzyl]-2,5-diaza-bicyclo[2.2.1]hept-2-yl}-2-oxo-ethyl)-carbamic acid tert-butyl ester] | 88
NCC(=O)N1C[C@H]2C[C@@H]1CN2Cc1ccc(Oc2nc3ccccc3s2)cc1 [Example 29, (R,R)-2-Amino-1-{5-[4-(benzothiazol-2-yloxy)-benzyl]-2,5-diaza-bicyclo[2.2.1]hept-2-yl}-ethanone] | 77
CC(C)(C)OC(=O)NCC(=O)N1C[C@@H]2C[C@H]1CN2CCOc1ccc(Oc2nc3ccccc3s2)cc1 [Example 30, (S,S)-[2-(5-{2-[4-(Benzothiazol-2-yloxy)-phenoxy]-ethyl}-2,5-diaza-bicyclo[2.2.1]hept-2-yl)-2-oxo-ethyl]-carbamic acid tert-butyl ester] | 16
NCC(=O)N1C[C@@H]2C[C@H]1CN2CCOc1ccc(Oc2nc3ccccc3s2)cc1 [Example 31, (S,S)-2-Amino-1-(5-{2-[4-(benzothiazol-2-yloxy)-phenoxy]-ethyl}-2,5-diaza-bicyclo[2.2.1]hept-2-yl)-ethanone] | 76
NC(=O)N1C[C@@H]2C[C@H]1CN2Cc1ccc(Oc2nc3ccccc3s2)cc1 [Example 32, (S,S)-5-[4-(Benzothiazol-2-yloxy)-benzyl]-2,5-diaza-bicyclo[2.2.1]heptane-2-carboxylic acid amide] | 3
NC(=O)N1C[C@@H]2C[C@H]1CN2Cc1cccc(Oc2nc3ccccc3s2)c1 [Example 33, (S,S)-5-[3-(Benzothiazol-2-yloxy)-benzyl]-2,5-diaza-bicyclo[2.2.1]heptane-2-carboxylic acid amide] | 164

Reference: patent publication US8344008B2 (Janssen Pharmaceutica NV, priority 2007, dated 2013)
